{
  "source": "patent US11464770B2",
  "about": "“Anticancer pharmaceutical composition” (NATIONAL CANCER CENTER, priority 2016, dated 2022)",
  "key": {"[1]": {"test_system": "ovarian cancer cell lines", "experiment": "Cell based assay, cell viability (CellTiter-Glo), ovarian cancer cell lines", "conditions": "Homo sapiens; OVCAR-3 cells", "method_in_brief": "(§1)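 Read-out is ATP-dependent luminescence (CellTiter-Glo) taken after 72 h of exposure to compound at final concentrations from 0 to 2 μM. Cells were plated 24 h beforehand.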"}, "[2]": {"test_system": "breast cancer cell lines (e.g. MDA-MB-231, SK-BR-3, MDA-MB-468, HCC1954)", "experiment": "Cell based assay, cell viability (CellTiter-Glo), breast cancer cell lines", "method_in_brief": "as §1"}, "melanoma cell lines": {"test_system": "melanoma cell lines", "experiment": "Cell based assay, cell viability (CellTiter-Glo), melanoma cell lines", "conditions": "Homo sapiens; LOX-IMVI cell line", "method_in_brief": "as §1"}, "[3]": {"conditions": "Breast cancer cell line MDA-MB-231-L/DOX, 72 hours, CellTiter-Glo, read-out: IC50, MDA-MB-231-L/DOX"}, "[4]": {"conditions": "Homo sapiens, Breast cancer cell line BT-20, 72 hours, CellTiter-Glo, read-out: IC50, BT-20"}, "[5]": {"conditions": "Homo sapiens, Breast cancer cell line HCC1395, 72 hours, CellTiter-Glo, read-out: IC50, HCC1395"}, "[6]": {"conditions": "Homo sapiens, Breast cancer cell line HCC1954, 72 hours, CellTiter-Glo, read-out: IC50, HCC1954"}, "[7]": {"conditions": "Homo sapiens, Breast cancer cell line JIMT-1, 72 hours, CellTiter-Glo, read-out: IC50, JIMT-1"}, "[8]": {"conditions": "Homo sapiens, Breast cancer cell line MCF7, 72 hours, CellTiter-Glo, read-out: IC50, MCF7"}, "[9]": {"conditions": "Homo sapiens, Breast cancer cell line MDA-MB-231, 72 hours, CellTiter-Glo, read-out: IC50, MDA-MB-231"}, "[10]": {"conditions": "Homo sapiens, Breast cancer cell line MDA-MB-468, 72 hours, CellTiter-Glo, read-out: IC50, MDA-MB-468"}, "[11]": {"conditions": "Homo sapiens, Breast cancer cell line SK-BR-3, 72 hours, CellTiter-Glo, read-out: IC50, SK-BR-3"}},
  "note": "pIC50: −log10 of the molar value. Where two headings read alike, the source gives them in different places.",
  "data": [
    {"smiles": "CSc1[nH]c2c(Br)ccc(Cl)c2c(=O)c1C(C)=O", "note": "[Compound 2, 3-acetyl-8-bromo-5-chloro-2-(methylthio)quinolin-4(1H)-one]", "values": [
      {"measurement": "pIC50", "setting": "[1]", "result": "< 5.70"},
      {"measurement": "pIC50", "setting": "[2]; [3]", "result": "< 5.70"},
      {"measurement": "pIC50", "setting": "[2]; [4]", "result": "< 5.70"},
      {"measurement": "pIC50", "setting": "[2]; [5]", "result": "< 5.00"},
      {"measurement": "pIC50", "setting": "[2]; [6]", "result": "< 5.70"},
      {"measurement": "pIC50", "setting": "[2]; [7]", "result": "< 5.00"},
      {"measurement": "pIC50", "setting": "[2]; [8]", "result": "< 5.70"},
      {"measurement": "pIC50", "setting": "[2]; [9]", "result": "< 5.70"},
      {"measurement": "pIC50", "setting": "[2]; [10]", "result": "< 5.70"},
      {"measurement": "pIC50", "setting": "[2]; [11]", "result": "< 5.70"},
      {"measurement": "pIC50", "setting": "melanoma cell lines", "result": "< 5.70"}
    ]},
    {"smiles": "CC(=O)c1c([S+]([O-])Cc2cccc(I)c2)[nH]c2c(Br)ccc(Cl)c2c1=O", "note": "(centres unmarked) [Compound 48, 3-acetyl-8-bromo-5-chloro-2-((3-iodobenzyl)sulfinyl)quinolin-4(1H)-one]", "values": [
      {"measurement": "pIC50", "setting": "[1]", "result": "< 5.70"},
      {"measurement": "pIC50", "setting": "[2]; [3]", "result": "< 5.70"},
      {"measurement": "pIC50", "setting": "[2]; [4]", "result": "< 5.70"},
      {"measurement": "pIC50", "setting": "[2]; [5]", "result": "< 5.00"},
      {"measurement": "pIC50", "setting": "[2]; [6]", "result": "< 5.70"},
      {"measurement": "pIC50", "setting": "[2]; [7]", "result": "< 5.00"},
      {"measurement": "pIC50", "setting": "[2]; [8]", "result": "< 5.70"},
      {"measurement": "pIC50", "setting": "[2]; [9]", "result": "< 5.70"},
      {"measurement": "pIC50", "setting": "[2]; [10]", "result": "< 5.70"},
      {"measurement": "pIC50", "setting": "[2]; [11]", "result": "< 5.70"},
      {"measurement": "pIC50", "setting": "melanoma cell lines", "result": "< 5.70"}
    ]},
    {"smiles": "CC(=O)c1c([S+](C)[O-])[nH]c2c(Cl)ccc(Cl)c2c1=O", "note": "(centres unmarked) [Compound 6, 3-acetyl-5,8-dichloro-2-(methylsulfinyl)quinolin-4(1H)-one]", "values": [
      {"measurement": "pIC50", "setting": "[1]", "result": 6.14},
      {"measurement": "pIC50", "setting": "[2]; [3]", "result": "< 5.70"},
      {"measurement": "pIC50", "setting": "[2]; [4]", "result": "< 5.70"},
      {"measurement": "pIC50", "setting": "[2]; [5]", "result": "< 5.00"},
      {"measurement": "pIC50", "setting": "[2]; [6]", "result": "< 5.70"},
      {"measurement": "pIC50", "setting": "[2]; [7]", "result": "< 5.00"},
      {"measurement": "pIC50", "setting": "[2]; [8]", "result": "< 5.70"},
      {"measurement": "pIC50", "setting": "[2]; [9]", "result": "< 5.70"},
      {"measurement": "pIC50", "setting": "[2]; [10]", "result": "< 5.70"},
      {"measurement": "pIC50", "setting": "[2]; [11]", "result": 5.95},
      {"measurement": "pIC50", "setting": "melanoma cell lines", "result": 5.87}
    ]},
    {"smiles": "CC(=O)c1c([S+]([O-])Cc2ccc(-n3cccn3)nc2)[nH]c2c(Br)ccc(Cl)c2c1=O", "note": "(centres unmarked) [Compound 99, 2-(((6-(1H-pyrazol-1-yl)pyridin-3-yl)methyl)sulfinyl)-3-acetyl-8-bromo-5-chloroquinolin-4(1H)-one]", "values": [
      {"measurement": "pIC50", "setting": "[1]", "result": 6.20},
      {"measurement": "pIC50", "setting": "[2]; Homo sapiens, BT-20 cells, 72 hours treatment, CellTiter-Glo cell viability, read-out: IC50, Breast cancer cell line BT-20", "result": "< 5.70"},
      {"measurement": "pIC50", "setting": "[2]; Homo sapiens, HCC1395 cells, 72 hours treatment, CellTiter-Glo cell viability, read-out: IC50, Breast cancer cell line HCC1395", "result": "< 5.70"},
      {"measurement": "pIC50", "setting": "[2]; Homo sapiens, HCC1954 cells, 72 hours treatment, CellTiter-Glo cell viability, read-out: IC50, Breast cancer cell line HCC1954", "result": 6.11},
      {"measurement": "pIC50", "setting": "[2]; Homo sapiens, JIMT-1 cells, 72 hours treatment, CellTiter-Glo cell viability, read-out: IC50, Breast cancer cell line JIMT-1", "result": "< 5.00"},
      {"measurement": "pIC50", "setting": "[2]; Homo sapiens, MCF7 cells, 72 hours treatment, CellTiter-Glo cell viability, read-out: IC50, Breast cancer cell line MCF7", "result": "< 5.70"},
      {"measurement": "pIC50", "setting": "[2]; Homo sapiens, MDA-MB-231 cells, 72 hours treatment, CellTiter-Glo cell viability, read-out: IC50, Breast cancer cell line MDA-MB-231", "result": 5.93},
      {"measurement": "pIC50", "setting": "[2]; Homo sapiens, MDA-MB-468 cells, 72 hours treatment, CellTiter-Glo cell viability, read-out: IC50, Breast cancer cell line MDA-MB-468", "result": 6.17},
      {"measurement": "pIC50", "setting": "[2]; Homo sapiens, SK-BR-3 cells, 72 hours treatment, CellTiter-Glo cell viability, read-out: IC50, Breast cancer cell line SK-BR-3", "result": 6.17},
      {"measurement": "pIC50", "setting": "[2]; MDA-MB-231-L/DOX cells, 72 hours treatment, CellTiter-Glo cell viability, read-out: IC50, Breast cancer cell line MDA-MB-231-L/DOX", "result": "< 5.70"},
      {"measurement": "pIC50", "setting": "melanoma cell lines", "result": 6.06}
    ]}
  ]
}
